Assay results taken from US8263606B2 (Xenon Pharmaceuticals Inc., priority 2008, dated 2012).
Structures can show the parent of a compound that is named as a salt.

What was measured:
sodium channel = test: Guanidine influx assay (14C-guanidine radiotracer flux, in vitro); assay type: cell-based, human or rat; conditions: guanidine influx assay using a known cell line that expresses a sodium channel
How it was run: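 Test agents at half-step dilutions around 1 μM are added to plated cells in low-sodium HEPES buffer, then an aconitine/14C-guanidine mixture; after ambient-temperature incubation, cells are washed and counted. IC50 comes from a sigmoidal fit.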

CYP3A4 = CYP3A4 (Homo sapiens, UniProt P08684); test: Cytochrome P450 (CYP450) Inhibition Assay, CYP3A4 (Vivid fluorescence, BOMCC substrate); conditions: human, P450 Baculosomes (recombinant CYP3A4), probe BOMCC (Vivid substrate)
CYP3A4, sequence (P08684 whole entry): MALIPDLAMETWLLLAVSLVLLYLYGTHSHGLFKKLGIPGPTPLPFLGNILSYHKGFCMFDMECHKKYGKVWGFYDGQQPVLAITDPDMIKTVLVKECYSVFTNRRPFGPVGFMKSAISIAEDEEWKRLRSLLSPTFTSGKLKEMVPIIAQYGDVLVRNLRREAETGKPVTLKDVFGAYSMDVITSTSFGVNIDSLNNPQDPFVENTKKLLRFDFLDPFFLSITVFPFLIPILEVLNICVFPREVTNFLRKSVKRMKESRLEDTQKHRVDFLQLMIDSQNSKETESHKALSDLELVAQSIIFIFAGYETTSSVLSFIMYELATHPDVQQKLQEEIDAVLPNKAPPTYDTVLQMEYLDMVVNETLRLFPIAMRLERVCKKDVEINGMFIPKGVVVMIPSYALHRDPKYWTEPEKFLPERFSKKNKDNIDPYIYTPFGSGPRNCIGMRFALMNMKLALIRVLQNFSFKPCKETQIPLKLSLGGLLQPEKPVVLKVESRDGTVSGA

Q: How did the IC50 (sodium channel; activity level class) turn out when Cc1cc2c(cc1C)C1(CO2)C(=O)N(CC2CCCCO2)c2ccccc21 (stereo not drawn) [Example 6.2, 5,6-dimethyl-1′-(tetrahydro-2H-pyran-2-ylmethyl)spiro[1-benzofuran-3,3′-indol]-2′(1′H)-one] was run?
A: The IC50 was 100 to 1000 nM.

Q: What about the inhibition at 10 µM (CYP3A4) of the same compound?
A: Its inhibition at 10 µM is > 50%.

Q: With O=C1N(C[C@H]2CCCO2)c2cccc(-c3cccc4c3sc3ccccc34)c2C12COc1cc3c(cc12)CCO3 (stereo partly drawn) [Example 16.2, 4′-dibenzo[b,d]thiophen-4-yl-1′-[(2R)-tetrahydrofuran-2-ylmethyl]-5,6-dihydrospiro[benzo[1,2-b:5,4-b′]difuran-3,3′-indol]-2′(1′H)-one] as the compound, how does the IC50 (sodium channel) read?
A: The IC50 was 100 to 1000 nM.

Q: And the inhibition at 10 µM (CYP3A4)?
A: The inhibition at 10 µM was > 50%.

Q: What does the source list for O=C1Nc2ccccc2C12COc1cc3c(cc12)S(=O)(=O)C=C3 (stereo not drawn) [Example 3.40, spiro[indole-3,3′-thieno[2,3-f][1]benzofuran]-2(1′H)-one 5,5′-dioxide]?
A: IC50 (sodium channel; activity level class): 1000 to 10000 nM; inhibition at 10 µM (CYP3A4): < 50%

Q: What does the source list for Cn1cc(CN2C(=O)C3(COc4cc5c(cc43)CCO5)c3ccccc32)c(C(F)(F)F)n1 (stereo not drawn) [Example 4.9, 1′-{[1-methyl-3-(trifluoromethyl)-1H-pyrazol-4-yl]methyl}-5,6-dihydrospiro[benzo[1,2-b:5,4-b′]difuran-3,3′-indol]-2′(1′H)-one]?
A: IC50 (sodium channel; activity level class): 100 to 1000 nM; inhibition at 10 µM (CYP3A4): > 50%

Q: For O=C1N(C[C@H]2CCCO2)c2c(F)cccc2C12COc1cc3c(cc12)CCO3 (stereo partly drawn) [Example 8.2, 7′-fluoro-1′-[(2R)-tetrahydrofuran-2-ylmethyl]-5,6-dihydrospiro[benzo[1,2-b:5,4-b′]difuran-3,3′-indol]-2′(1′H)-one], which IC50 (sodium channel; activity level class) is on record?
A: The IC50 was 1 to 100 nM.

Q: What about the inhibition at 10 µM (CYP3A4) of the same compound?
A: Its inhibition at 10 µM is < 50%.

Q: Which IC50 (sodium channel) does the source give for O=C1N(Cc2ccc(-c3nnn[nH]3)cc2)c2ccccc2C12COc1cc3c(cc12)CCO3 (stereo not drawn) [Example 11.44, 1′-[4-(1H-tetrazol-5-yl)benzyl]-5,6-dihydrospiro[benzo[1,2-b:5,4-b′]difuran-3,3′-indol]-2′(1′H)-one] here?
A: Its IC50 is 1000 to 10000 nM.

Q: What about the inhibition at 10 µM (CYP3A4) of the same compound?
A: Its inhibition at 10 µM is > 50%.

Q: Which results are given for CN1CCOC(CN2C(=O)C3(COc4cc5c(cc43)CCO5)c3ccccc32)C1 (stereo not drawn) [Example 11.41, 1′-[(4-methylmorpholin-2-yl)methyl]-5,6-dihydrospiro[benzo[1,2-b:5,4-b′]difuran-3,3′-indol]-2′(1′H)-one]?
A: IC50 (sodium channel): 100 to 1000 nM; inhibition at 10 µM (CYP3A4): > 50%

Q: With CC(C)CCN1C(=O)C2(COc3cc4c(cc32)CCO4)c2ccccc21 (stereo not drawn) [Example 4.4, 1′-(3-methylbutyl)-5,6-dihydrospiro[benzo[1,2-b:5,4-b′]difuran-3,3′-indol]-2′(1′H)-one] as the compound, how does the IC50 (sodium channel; activity level class) read?
A: The IC50 was 1 to 100 nM.

Q: And the inhibition at 10 µM (CYP3A4)?
A: Its inhibition at 10 µM is > 50%.

Q: Which IC50 (sodium channel) does the source give for CN1CCC(CN2C(=O)C3(COc4cc(F)c(F)cc43)c3ccccc32)CC1 (stereo not drawn) [Example 11.112, 5,6-difluoro-1′-[(1-methylpiperidin-4-yl)methyl]spiro[1-benzofuran-3,3′-indol]-2′(1′H)-one hydrochloride] here?
A: Its IC50 is 1 to 100 nM.

Q: And the inhibition at 10 µM (CYP3A4)?
A: Its inhibition at 10 µM is > 50%.

Q: What does the source list for O=C1N(Cc2cccc[n+]2[O-])c2ccccc2C12COc1cc3c(cc12)OCCO3 (stereo not drawn) [Example 11.95, 1′-[(1-oxidopyridin-2-yl)methyl]-2,3-dihydrospiro[furo[2,3-g][1,4]benzodioxine-8,3′-indol]-2′(1′H)-one]?
A: IC50 (sodium channel): 100 to 1000 nM; inhibition at 10 µM (CYP3A4): < 50%

Q: For O=C1N(Cc2ccc(C(F)(F)F)o2)c2ccccc2C12CCOc1cc3c(cc12)CCO3 (stereo not drawn) [Example 4.70, 1-{[5-(trifluoromethyl)furan-2-yl]methyl}-2,3,6,7-tetrahydrospiro[furo[3,2-g]chromene-5,3′-indol]-2′(1′H)-one], which IC50 (sodium channel; activity level class) is on record?
A: The IC50 was 1000 to 10000 nM.

Q: And the inhibition at 10 µM (CYP3A4)?
A: Its inhibition at 10 µM is > 50%.

Q: Which results are given for Cc1noc2cc3c(cc12)C1(CO3)C(=O)N(Cc2ccc(-c3cc(N)n[nH]3)cc2)c2ccccc21 (stereo not drawn) [Example 29.1, 1′-[4-(3-amino-1H-pyrazol-5-yl)benzyl]-3-methylspiro[furo[3,2-f][1,2]benzisoxazole-5,3′-indol]-2′(1′H)-one hydrochloride]?
A: IC50 (sodium channel): 100 to 1000 nM; inhibition at 10 µM (CYP3A4): > 50%

Q: What does the source list for O=C(O)c1ccc(CN2C(=O)C3(COc4cc5c(cc43)CCO5)c3ccccc32)o1 (stereo not drawn) [Example 13, 5-[(2′-oxo-5,6-dihydrospiro[benzo[1,2-b:5,4-b′]difuran-3,3′-indol]-1′(2′H)-yl)methyl]furan-2-carboxylic acid]?
A: IC50 (sodium channel): 1000 to 10000 nM; inhibition at 10 µM (CYP3A4): < 50%

Q: What does the source list for CN(C)C(=O)c1ccc(CN2C(=O)C3(COc4cc5c(cc43)CCO5)c3ccccc32)o1 (stereo not drawn) [Example 13.1, N,N-dimethyl-5-[(2′-oxo-5,6-dihydrospiro[benzo[1,2-b:5,4-b′]difuran-3,3′-indol]-1′(2′H)-yl)methyl]furan-2-carboxamide]?
A: IC50 (sodium channel): 1 to 100 nM; inhibition at 10 µM (CYP3A4): > 50%

Q: Which results are given for O=C(O)c1ccccc1CN1C(=O)C2(COc3cc4c(cc32)CCO4)c2ccccc21 (stereo not drawn) [Example 11.30, 2-[(2′-oxo-5,6-dihydrospiro[benzo[1,2-b:5,4-b′]difuran-3,3′-indol]-1′(2′H)-yl)methyl]benzoic acid]?
A: IC50 (sodium channel): 1000 to 10000 nM; inhibition at 10 µM (CYP3A4): < 50%

Q: O=C1N(Cc2ccc(Br)o2)c2ccccc2C12COc1cc3c(cc12)CCO3 (stereo not drawn) [Example 4.18, 1′-[(5-bromofuran-2-yl)methyl]-5,6-dihydrospiro[benzo[1,2-b:5,4-b′]difuran-3,3′-indol]-2′(1′H)-one] was tested. Which IC50 (sodium channel; activity level class) did it give?
A: Its IC50 is 1 to 100 nM.

Q: And the inhibition at 10 µM (CYP3A4)?
A: The inhibition at 10 µM was > 50%.

Q: With O=C1N(Cc2ccccc2F)c2ccccc2C12COc1cc3c(cc12)CCO3 (stereo not drawn) [Example 4.12, 1′-(2-fluorobenzyl)-5,6-dihydrospiro[benzo[1,2-b:5,4-b′]difuran-3,3′-indol]-2′(1′H)-one] as the compound, how does the IC50 (sodium channel; activity level class) read?
A: Its IC50 is 1 to 100 nM.

Q: And the inhibition at 10 µM (CYP3A4)?
A: Its inhibition at 10 µM is < 50%.

Q: Which IC50 (sodium channel) does the source give for CC(CNC(=O)c1cccc(CN2C(=O)C3(COc4cc5c(cc43)CCO5)c3ccccc32)c1)c1ccccc1 (stereo not drawn) [Example 12.5, 3-[(2′-oxo-5,6-dihydrospiro[benzo[1,2-b:5,4-b′]difuran-3,3′-indol]-1′(2′H)-yl)methyl]-N-(2-phenylpropyl)benzamide] here?
A: The IC50 was 100 to 1000 nM.

Q: What about the inhibition at 10 µM (CYP3A4) of the same compound?
A: The inhibition at 10 µM was > 50%.

Q: O=C1N(Cc2ccc(C(F)(F)F)cn2)c2ccccc2C12COc1cc3c(cc12)OCCO3 (stereo not drawn) [Example 7.12] was tested. Which IC50 (sodium channel; activity level class) did it give?
A: Its IC50 is 1 to 100 nM.

Q: And the inhibition at 10 µM (CYP3A4)?
A: The inhibition at 10 µM was > 50%.

Q: For O=C1N(Cc2cc(C(F)(F)F)ccc2F)c2ccccc2C12COc1cc3c(cc12)OCCO3 (stereo not drawn) [Example 7.26, 1′-[(2-fluoro-5-trifluoromethyl)benzyl]-2,3-dihydrospiro[furo[2,3-g][1,4]benzodioxine-8,3′-indol]-2′(1′H)-one], which IC50 (sodium channel; activity level class) is on record?
A: Its IC50 is 1 to 100 nM.

Q: What about the inhibition at 10 µM (CYP3A4) of the same compound?
A: Its inhibition at 10 µM is < 50%.

Q: What does the source list for CC(C)(C)OC(=O)NC(CCN1C(=O)C2(COc3cc4c(cc32)OCO4)c2ccccc21)C1CC1 (stereo not drawn) [Example 4.78, tert-butyl [1-cyclopropyl-3-(2′-oxospiro[furo[2,3-f][1,3]benzodioxole-7,3′-indol]-1′(2′H)-yl)propyl]carbamate]?
A: IC50 (sodium channel; activity level class): 1 to 100 nM; inhibition at 10 µM (CYP3A4): > 50%

Q: Which IC50 (sodium channel; activity level class) does the source give for O=C1N(Cc2cccc([N+](=O)[O-])c2)c2ccccc2C12COc1cc3c(cc12)OCCO3 (stereo not drawn) [Example 7.10] here?
A: Its IC50 is 1 to 100 nM.

Q: And the inhibition at 10 µM (CYP3A4)?
A: Its inhibition at 10 µM is < 50%.

Q: For O=C1N(C[C@@H]2CCCO2)c2ccccc2[C@@]12COc1cc3c(cc12)CCO3 [Example 11.68, (3R)-1-[(2S)-tetrahydrofuran-2-ylmethyl]-5,6-dihydrospiro[benzo[1,2-b:5,4-b′]difuran-3,3′-indol]-2′(1′H)-one], which IC50 (sodium channel) is on record?
A: The IC50 was 1 to 100 nM.

Q: And the inhibition at 10 µM (CYP3A4)?
A: The inhibition at 10 µM was > 50%.

Q: What does the source list for C[C@H](NC(=O)c1cccc(CN2C(=O)C3(COc4cc5c(cc43)CCO5)c3ccccc32)c1)C1CCCCC1 (stereo partly drawn) [Example 12.6, N-[(1S)-1-cyclohexylethyl]-3-[(2′-oxo-5,6-dihydrospiro[benzo[1,2-b:5,4-b′]difuran-3,3′-indol]-1′(2′H)-yl)methyl]benzamide]?
A: IC50 (sodium channel): 100 to 1000 nM; inhibition at 10 µM (CYP3A4): > 50%
